Measured values: US8796289B2 (AbbVie Inc., priority 2011, dated 2014)

molecular target: GST-tagged-Wee1 kinase (Homo sapiens, UniProt P30291); assay: Wee1 time-resolved fluorescence equilibrium binding assay (displacement of Oregon Green-labeled ATP-competitive kinase probe)
Description: Wee1 kinase was assayed using a time-resolved fluorescence equilibrium binding assay monitoring displacement of a rapidly reversible Oregon Green-labeled ATP-competitive kinase probe (N-(2-(2-(2-(4-(4-(5-chloro-4-(2-(1-hydroxycyclobutyl)thiazol-5-yl)-1H-pyrrolo[2,3-b]pyridin-2-yl)phenyl)piperazin-1-yl)ethoxy)ethoxy)ethyl)-2′,7′-difluoro-3′,6′-dihydroxy-3-oxo-3H-spiro[isobenzofuran-1,9′-xanthene]-5-carboxamide) by competitive Wee1 inhibitors.

Sequence of GST-tagged-Wee1 kinase (P30291 whole entry): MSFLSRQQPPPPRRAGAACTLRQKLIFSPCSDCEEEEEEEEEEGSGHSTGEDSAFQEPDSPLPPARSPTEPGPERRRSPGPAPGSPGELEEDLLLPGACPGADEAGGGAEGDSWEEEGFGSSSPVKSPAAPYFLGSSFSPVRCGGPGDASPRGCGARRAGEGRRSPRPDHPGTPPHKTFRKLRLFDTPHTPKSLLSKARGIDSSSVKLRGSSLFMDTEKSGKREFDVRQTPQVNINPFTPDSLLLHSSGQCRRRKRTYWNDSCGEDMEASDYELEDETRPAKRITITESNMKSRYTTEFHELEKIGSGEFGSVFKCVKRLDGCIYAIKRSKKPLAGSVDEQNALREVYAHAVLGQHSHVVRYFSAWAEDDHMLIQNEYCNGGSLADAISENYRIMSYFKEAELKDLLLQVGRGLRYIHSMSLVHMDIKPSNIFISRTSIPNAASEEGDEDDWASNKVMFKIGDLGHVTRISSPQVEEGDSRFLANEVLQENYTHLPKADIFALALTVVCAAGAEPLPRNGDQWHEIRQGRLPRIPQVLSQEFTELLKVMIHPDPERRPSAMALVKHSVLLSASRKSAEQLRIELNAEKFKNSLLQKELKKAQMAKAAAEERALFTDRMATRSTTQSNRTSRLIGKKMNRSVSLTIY

Ki [nM]	Structure (SMILES)
0.09	CN1CCN(c2ccc(Nc3ncc4c(=O)n(-c5c(Cl)cccc5Cl)nc(-c5cccnc5)c4n3)cc2)CC1 [Example 99, 6-(2,6-dichlorophenyl)-2-{[4-(4-methylpiperazin-1-yl)phenyl]amino}-8-(pyridin-3-yl)pyrimido[4,5-d]pyridazin-5(6H)-one]
14	CN1CCN(c2ccc(Nc3ncc4c(=O)n(-c5ccccc5)nc(-c5cccnc5)c4n3)cc2)CC1 [Example 100, 2-{[4-(4-methylpiperazin-1-yl)phenyl]amino}-6-phenyl-8-(pyridin-3-yl)pyrimido[4,5-d]pyridazin-5(6H)-one]
0.02	CN1Cc2cc(Nc3ncc4c(=O)n(-c5c(Cl)cccc5Cl)nc(-c5cccnc5)c4n3)ccc2C2(CC2)C1 [Example 101, 6-(2,6-dichlorophenyl)-2-[(2′-methyl-2′,3′-dihydro-1′H-spiro[cyclopropane-1,4′-isoquinolin]-7′-yl)amino]-8-(pyridin-3-yl)pyrimido[4,5-d]pyridazin-5(6H)-one]
6	CN1CCN(c2ccc(Nc3ncc4c(=O)n(-c5ccccc5)nc(-c5ccccn5)c4n3)cc2)CC1 [Example 102, 2-{[4-(4-methylpiperazin-1-yl)phenyl]amino}-6-phenyl-8-(pyridin-2-yl)pyrimido[4,5-d]pyridazin-5(6H)-one]
0.2	CN1CCN(c2ccc(Nc3ncc4c(=O)n(-c5c(Cl)cccc5Cl)nc(-c5ccccn5)c4n3)cc2)CC1 [Example 103, 6-(2,6-dichlorophenyl)-2-{[4-(4-methylpiperazin-1-yl)phenyl]amino}-8-(pyridin-2-yl)pyrimido[4,5-d]pyridazin-5(6H)-one]
0.6	CN1Cc2cc(Nc3ncc4c(=O)n(-c5c(Cl)cccc5Cl)nc(-c5ccccn5)c4n3)ccc2C2(CC2)C1 [Example 104, 6-(2,6-dichlorophenyl)-2-[(2′-methyl-2′,3′-dihydro-1′H-spiro[cyclopropane-1,4′-isoquinolin]-7′-yl)amino]-8-(pyridin-2-yl)pyrimido[4,5-d]pyridazin-5(6H)-one]
4	CN1CCN(c2ccc(Nc3ncc4c(=O)n(-c5c(Cl)cccc5Cl)nc(C5CCCNC5)c4n3)cc2)CC1 (stereo not shown) [Example 105, 6-(2,6-dichlorophenyl)-2-{[4-(4-methylpiperazin-1-yl)phenyl]amino}-8-(piperidin-3-yl)pyrimido[4,5-d]pyridazin-5(6H)-one]
5	Cc1ccccc1-n1nc(-c2ccco2)c2nc(Nc3ccc(CN(C)C)cc3)ncc2c1=O [Example 106, 2-({4-[(dimethylamino)methyl]phenyl}amino)-8-(2-furyl)-6-(2-methylphenyl)pyrimido[4,5-d]pyridazin-5(6H)-one]
1	Cc1ccccc1-n1nc(-c2ccco2)c2nc(Nc3ccc(N4CCN(C(C)C)CC4)cc3)ncc2c1=O [Example 107, 8-(2-furyl)-2-{[4-(4-isopropylpiperazin-1-yl)phenyl]amino}-6-(2-methylphenyl)pyrimido[4,5-d]pyridazin-5(6H)-one]
150	Cc1ccccc1-n1nc(-c2ccco2)c2nc(Nc3ccc(S(=O)(=O)N4CCOCC4)cc3)ncc2c1=O [Example 108, 8-(2-furyl)-6-(2-methylphenyl)-2-{[4-(morpholin-4-ylsulfonyl)phenyl]amino}pyrimido[4,5-d]pyridazin-5(6H)-one]
> 3140	Cc1ccccc1-n1nc(-c2ccccc2)c2nc(Nc3ccc(S(=O)(=O)N4CCOCC4)cc3)ncc2c1=O [Example 109, 6-(2-methylphenyl)-2-{[4-(morpholin-4-ylsulfonyl)phenyl]amino}-8-phenylpyrimido[4,5-d]pyridazin-5(6H)-one]
> 3140	C=CCn1nc(-c2ccccc2)c2nc(Nc3ccc(S(=O)(=O)N4CCOCC4)cc3)ncc2c1=O [Example 110, 6-allyl-2-{[4-(morpholin-4-ylsulfonyl)phenyl]amino}-8-phenylpyrimido[4,5-d]pyridazin-5(6H)-one]
2.5	Cc1ccccc1-n1nc(-c2ccccc2)c2nc(Nc3ccc(CN(C)C)cc3)ncc2c1=O [Example 111, 2-({4-[(dimethylamino)methyl]phenyl}amino)-6-(2-methylphenyl)-8-phenylpyrimido[4,5-d]pyridazin-5(6H)-one]
14	C=CCn1nc(-c2ccco2)c2nc(Nc3ccc(N4CCN(C(C)C)CC4)cc3)ncc2c1=O [Example 112, 6-allyl-8-(2-furyl)-2-{[4-(4-isopropylpiperazin-1-yl)phenyl]amino}pyrimido[4,5-d]pyridazin-5(6H)-one]
0.4	COc1cc(Nc2ncc3c(=O)n(-c4ccccc4C)nc(-c4ccccc4)c3n2)ccc1N1CCN(C(C)C)CC1 [Example 113, 2-{[4-(4-isopropylpiperazin-1-yl)-3-methoxyphenyl]amino}-6-(2-methylphenyl)-8-phenylpyrimido[4,5-d]pyridazin-5(6H)-one]
3	C=CCn1nc(-c2ccccc2)c2nc(Nc3ccc(N4CCN(C(C)C)CC4)c(OC)c3)ncc2c1=O [Example 114, 6-allyl-2-{[4-(4-isopropylpiperazin-1-yl)-3-methoxyphenyl]amino}-8-phenylpyrimido[4,5-d]pyridazin-5(6H)-one]

Ki [nM]	Structure (SMILES)
4	C=CCn1nc(-c2ccccc2)c2nc(Nc3ccc(N4CCCN(C(C)C)CC4)c(C)c3)ncc2c1=O [Example 115, 6-allyl-2-{[4-(4-isopropyl-1,4-diazepan-1-yl)-3-methylphenyl]amino}-8-phenylpyrimido[4,5-d]pyridazin-5(6H)-one]
0.4	Cc1cc(Nc2ncc3c(=O)n(-c4ccccc4C)nc(-c4ccccc4)c3n2)ccc1N1CCCN(C(C)C)CC1 [Example 116, 2-{[4-(4-isopropyl-1,4-diazepan-1-yl)-3-methylphenyl]amino}-6-(2-methylphenyl)-8-phenylpyrimido[4,5-d]pyridazin-5(6H)-one]
3	C=CCn1nc(-c2cccs2)c2nc(Nc3ccc4c(c3)CN(C)CC43CC3)ncc2c1=O [Example 117, 6-allyl-2-[(2′-methyl-2′,3′-dihydro-1′H-spiro[cyclopropane-1,4′-isoquinolin]-7′-yl)amino]-8-(2-thienyl)pyrimido[4,5-d]pyridazin-5(6H)-one]
1	Cc1ccccc1-n1nc(-c2cccs2)c2nc(Nc3ccc(N4CCN(C(C)C)CC4)cc3)ncc2c1=O [Example 118, 2-{[4-(4-isopropylpiperazin-1-yl)phenyl]amino}-6-(2-methylphenyl)-8-(2-thienyl)pyrimido[4,5-d]pyridazin-5(6H)-one]
1	Cc1cc(Nc2ncc3c(=O)n(-c4ccccc4C)nc(-c4cccs4)c3n2)ccc1N1CCN(C(C)C)CC1 [Example 119, 2-{[4-(4-isopropylpiperazin-1-yl)-3-methylphenyl]amino}-6-(2-methylphenyl)-8-(2-thienyl)pyrimido[4,5-d]pyridazin-5(6H)-one]
1	Cc1cc(Nc2ncc3c(=O)n(-c4ccccc4C)nc(-c4cccs4)c3n2)ccc1N1CCCN(C(C)C)CC1 [Example 120, 2-{[4-(4-isopropyl-1,4-diazepan-1-yl)-3-methylphenyl]amino}-6-(2-methylphenyl)-8-(2-thienyl)pyrimido[4,5-d]pyridazin-5(6H)-one]
3	O=C1CCCN1c1ccc(Nc2ncc3c(=O)n(-c4ccccc4Cl)nc(-c4cccs4)c3n2)cc1 [Example 121, 6-(2-chlorophenyl)-2-{[4-(2-oxopyrrolidin-1-yl)phenyl]amino}-8-(2-thienyl)pyrimido[4,5-d]pyridazin-5(6H)-one]
0.5	CC(C)N1CCN(c2ccc(Nc3ncc4c(=O)n(-c5ccccc5Cl)nc(-c5cccs5)c4n3)cc2)CC1 [Example 122, 6-(2-chlorophenyl)-2-{[4-(4-isopropylpiperazin-1-yl)phenyl]amino}-8-(2-thienyl)pyrimido[4,5-d]pyridazin-5(6H)-one]
2	CN1Cc2cc(Nc3ncc4c(=O)n(-c5ccccc5Cl)nc(-c5cccs5)c4n3)ccc2C2(CC2)C1 [Example 123, 6-(2-chlorophenyl)-2-[(2′-methyl-2′,3′-dihydro-1′H-spiro[cyclopropane-1,4′-isoquinolin]-7′-yl)amino]-8-(2-thienyl)pyrimido[4,5-d]pyridazin-5(6H)-one]
75	C=CCn1nc(-c2cccs2)c2nc(Nc3ccc(N4CCCC4=O)cc3)ncc2c1=O [Example 124, 6-allyl-2-{[4-(2-oxopyrrolidin-1-yl)phenyl]amino}-8-(2-thienyl)pyrimido[4,5-d]pyridazin-5(6H)-one]
> 3140	C=CCn1nc(-c2cccs2)c2nc(Nc3ccc(S(=O)(=O)N4CCOCC4)cc3)ncc2c1=O [Example 125, 6-allyl-2-{[4-(morpholin-4-ylsulfonyl)phenyl]amino}-8-(2-thienyl)pyrimido[4,5-d]pyridazin-5(6H)-one]
6	C=CCn1nc(-c2cccs2)c2nc(Nc3ccc(N4CCN(C(C)C)CC4)cc3)ncc2c1=O [Example 126, 6-allyl-2-{[4-(4-isopropylpiperazin-1-yl)phenyl]amino}-8-(2-thienyl)pyrimido[4,5-d]pyridazin-5(6H)-one]
4	C=CCn1nc(-c2cccs2)c2nc(Nc3ccc(N4CCN(C(C)C)CC4)c(C)c3)ncc2c1=O [Example 127, 6-allyl-2-{[4-(4-isopropylpiperazin-1-yl)-3-methylphenyl]amino}-8-(2-thienyl)pyrimido[4,5-d]pyridazin-5(6H)-one]
6	Cc1ccccc1-n1nc(-c2cccs2)c2nc(Nc3ccc(N4CCCC4=O)cc3)ncc2c1=O [Example 128, 6-(2-methylphenyl)-2-{[4-(2-oxopyrrolidin-1-yl)phenyl]amino}-8-(2-thienyl)pyrimido[4,5-d]pyridazin-5(6H)-one]
> 3140	Cc1ccccc1-n1nc(-c2cccs2)c2nc(Nc3ccc(S(=O)(=O)N4CCOCC4)cc3)ncc2c1=O [Example 129, 6-(2-methylphenyl)-2-{[4-(morpholin-4-ylsulfonyl)phenyl]amino}-8-(2-thienyl)pyrimido[4,5-d]pyridazin-5(6H)-one]
